According to patent US20180153780A1, “Composition For Providing High Lift And Color Deposit” (Zotos International, Inc., priority 2016, published 2018):

Assays:
[1] = Visual evaluation of the alkalizers' lightening power; details: conclusion from Tables 5 and 6, comparison of alkalizers
From the text: The examples above show hair lightening and hair coloring compositions. […]

[2] = Minolta L.A.B. (CIELAB) evaluation of lightening power on hair tresses; details: FIG. 1
Protocol: In all examples, the ΔE values were measured using a L.A.B. reading using the color measurement method of CIELAB which is used to mathematically compute and compare the color of hair tresses. The method was developed by CIE using L*, a* and b* values. L* represents the difference between light (where L*=100) and dark (where L* is 0); a represents the difference between green ([…]) and red (+a*); and b* represents the difference between yellow (+b*) and blue (−b*). This system then maps true color to a place on a three dimensional graph wherein the variables are calculated by the changes in their values and those changes are used to compute the ΔE value which is a change in color. Such a system is commercially known and used in the art.

Structure (SMILES)	lift on the darker hair [1]	lift when added to ammonium hydroxide and MEA, versus the same component alone [2]
N [ammonium hydroxide]	highest amount of lift	
O=[Si]([O-])[O-].[Na+].[Na+] [sodium metasilicate]		synergistic lift
